Consider two compounds from US11202792B2, “CD99 inhibitors and their uses” (GEORGETOWN UNIVERSITY, priority 2016, dated 2021).

Experiment [1] concerns TC-71 and RD-ES cell lines. The experiment in a line: Dose-dependent cytotoxicity assay in ES cell lines. In kind it is cell-based, human. To be noted: dose-response at 1, 3, 10 and 30 μmol/L in TC-71 and RD-ES. The protocol: The plate was installed into the RTCA system, and the electrical impedance (represented as cell index) was measured every 10 min.
The primary screen was based on a direct binding assay using surface plasmon resonance (SPR) technology with purified extracellular domain of CD99 (CD99-ECD) protein that was immobilized on a neutravidin-coated sensor chip. […] A negative control protein was used in order to eliminate non-specific binders. […] Dose-response studies were performed with 2 compounds at 1, 3, 10 and 30 μmol/L concentration in ES cell lines.

For experiment [2], the target named is T1, recombinant human full-length CD99 (Homo sapiens, UniProt P14209).
T1 construct: Purified recombinant human full-length CD99 produced in HEK293 cells was purchased from Origene; purchased Origene #TP304056; host or cells: HEK293
T1 sequence (P14209 23-185): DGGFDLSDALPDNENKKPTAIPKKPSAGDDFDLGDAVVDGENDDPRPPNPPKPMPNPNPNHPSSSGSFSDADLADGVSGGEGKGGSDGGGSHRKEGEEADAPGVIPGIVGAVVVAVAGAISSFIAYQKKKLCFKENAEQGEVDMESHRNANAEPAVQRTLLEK
Put plainly: SPR binding kinetics, recombinant human full-length CD99 (Biacore T200). To be noted: full-length CD99 produced in HEK293 cells, immobilized by amine coupling. The protocol: The initial binding screening of the NCI/DTP chemical libraries was performed on a Biacore T200 instrument at room temperature using a neutravidin-coated CM5 chip (GE Healthcare Bio-Sciences) coupled with biotinylated CD99-ECD on one flow cell at levels of ˜3,000 response units (RU). A negative control protein, Ly6k was immobilized on another flow cell of the same chip (˜11,000 RU), and the first flow cell was left empty for reference subtraction due to nonspecific binding. Analytes were diluted in HBS—P buffer [10 mmol/L HEPES, pH 7.4, 150 mmol/L NaCl, % 0.05 (v/v) surfactant P20], and were injected individually over all flow cells. The running buffer contained appropriate concentrations of DMSO in HBS—P to match the DMSO level of the samples. Kinetic studies for antibody- or compound-CD99 interactions were performed in a Biacore T200 instrument. Purified recombinant human full-length CD99 produced in HEK293 cells was purchased from Origene (Rockville, Md.) (#TP304056). The recombinant human full-length CD99 was immobilized on a CM5 sensor chip by the amine-coupling method in sodium acetate buffer, pH 4.0 (˜10,000 RU). The first flow cell was left empty for background signal subtraction. Kinetic characterization of the interactions was done by injecting increasing concentrations of analytes as indicated over CD99-captured and control surface. KD (equilibrium dissociation constant) values were obtained using BiaEvaluation software (version 1.0) (Biacore) (GE Healthcare). All kinetic experiments were conducted in HBS—P buffer, which contained 1% (v/v) DMSO in case of compounds.

Experiment [3] concerns the target T2, CD99-ECD (extracellular domain of human CD99) (Homo sapiens, UniProt P14209).
T2 construct: the extracellular domain (Asp23-Asp122) of human CD99; made in house; host or cells: Escherichia coli BL21 (DE3)
T2 sequence (P14209 23-122): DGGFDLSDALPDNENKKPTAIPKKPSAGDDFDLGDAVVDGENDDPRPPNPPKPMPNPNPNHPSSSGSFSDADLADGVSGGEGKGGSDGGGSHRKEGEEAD
Put plainly: SPR binding, CD99-ECD purified from bacteria. An excerpt: The Champion™ pET104 BioEase™ Gateway® Expression System (Invitrogen (Carlsbad, Calif.)) was used to produce CD99-ECD fused with a N-terminal biotin tag, as directed by the manufacturer's instructions. Briefly, the DNA sequence encoding the extracellular domain (Asp23-Asp122) of human CD99 was amplified by PCR using pcDNA3.1 expression vector (Life Technologies (Carlsbad, Calif.)) carrying the full-length human CD99 cDNA transcript variant 1 as template. The primers were designed to include an additional C-terminal 6×His tag in the protein. The PCR product was gel purified with a QIAquick gel extraction kit (Qiagen (Hilden, Germany)) and subcloned into the pDONR 221 entry vector. The entry clone was then subjected to a recombination reaction with pET104.1-DEST destination vector, an expression vector with a N-terminal BioEase tag. The presence of an insert was confirmed by DNA sequencing.
CD99-ECD was expressed in Escherichia coli BL21 (DE3) cells. A saturated overnight culture of cells was diluted by 20-fold into fresh LB medium containing 100 μg/mL ampicillin. To induce the expression of CD99-ECD, cells were grown to OD600nm 0.5-0.7 at 37° C. and induced by the addition of isopropyl-β-D-thiogalactopyranoside to a final concentration of 1 mmol/L. The cultures were grown for an additional 3 h at 37° C. Cells were harvested by centrifugation at 8,000×g for 15 min, resuspended in 50 mmol/L sodium phosphate buffer, pH 7.4, containing 500 mmol/L NaCl, 10 mmol/L imidazole and 1 Complete EDTA-free protease inhibitor tablet/50 mL (Roche Diagnostics), and lysed by sonication. […] Protein fractions were finally eluted with a linear gradient of imidazole (10 to 1000 mmol/L) in the same buffer. The purity of the protein was assessed by SDS-PAGE followed by Coomassie staining. The eluted fractions were stored at −80° C. for further use. […]

A further experiment relates to TC-71 ES cells. The experiment in a line: Cell viability IC50, TC-71. In kind it is cell-based, human. To be noted: TC-71 cells, WST-1, 48 h (FIG. 10B).
The subject of the next experiment is A4573 ES cells. Put plainly: Cell viability IC50 (WST-1), A4573. The class given is cell-based, human. To be noted: WST-1, 48 h (FIG. 10B).
In experiment [4] the test system is TC-71, 6647 and RDES ES cells. The experiment in a line: Soft agar colony formation assay, ES cells. In kind it is cell-based, human. To be noted: dose-dependent. The protocol: Anchorage-independent growth was determined in 0.33% agarose (Sea-Plaque Agarose, Lonza) with a 0.5% agarose underlay. […] Colonies were counted after 7-12 days.
The test system of a further experiment is TC-CD99-shRNA #1 cells. The experiment in a line: Soft agar colony formation assay, CD99 knockdown cells. In kind it is cell-based, human.

Turning to `C=C(Cl)C(Cl)(CBr)CCC(Br)C(C)(C)Cl` (stereo not shown) [NSC662825], in experiment [1], the IC50 was found to be 9 µM.
For the compound clofarabine-5′-triphosphate, the dissociation constant (Kd) in experiment [2] was determined as 3.7 µM; in experiment [3] it was 7.6 µM. The IC50 with TC-71 ES cells was 0.17 µM; in the experiment with A4573 ES cells, 0.46 µM. Besides, the “colony formation (anchorage-independent growth)” value in experiment [4] is on record as “inhibited”. For the same compound, the “colony formation in CD99 knockdown cells” value in the experiment on TC-CD99-shRNA #1 cells was “diminished”.
